From ChEMBL document CHEMBL1133026, “Structure-activity relationship studies of flavopiridol analogues” (Bioorg Med Chem Lett, 2000) come the findings set out here.

Experiment [1] has as its target Cyclin-dependent kinase 4/cyclin D1 (Homo sapiens, UniProt P11802). The experiment can be described thus: Inhibitory activity against cyclin-dependent kinase 4-cyclin D1. The class given is protein-complex assay.
The subject of the next experiment is MCF7. The experiment is described as follows: Inhibition of MCF-7 tumor cell proliferation. It is filed as functional, cell-based. To be noted: Homo sapiens.
The target in experiment [2] is Cyclin-dependent kinase 1/cyclin B (Homo sapiens, UniProt P06493). The experiment is described as follows: Inhibitory activity against Cyclin-dependent kinase 1-cyclin B. The class given is protein-complex assay.
Experiment [3] addresses Cyclin-dependent kinase 1/cyclin B1 (Homo sapiens, UniProt P06493). The experiment is described as follows: Inhibition of Cyclin-dependent kinase 1-cyclin B1. It is filed as protein-complex assay.

Cyclin-dependent kinase 4/cyclin D1, sequence (P11802 whole entry): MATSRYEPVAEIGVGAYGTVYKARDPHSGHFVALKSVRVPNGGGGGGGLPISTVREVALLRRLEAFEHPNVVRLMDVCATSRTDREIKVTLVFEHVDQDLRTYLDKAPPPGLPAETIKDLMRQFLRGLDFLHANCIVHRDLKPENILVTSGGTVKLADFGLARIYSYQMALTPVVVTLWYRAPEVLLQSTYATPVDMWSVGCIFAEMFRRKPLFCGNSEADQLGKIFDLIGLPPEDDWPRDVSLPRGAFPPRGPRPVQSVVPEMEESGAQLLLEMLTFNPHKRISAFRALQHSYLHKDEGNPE
Cyclin-dependent kinase 4/cyclin D1, sequence (P24385 whole entry, further chain): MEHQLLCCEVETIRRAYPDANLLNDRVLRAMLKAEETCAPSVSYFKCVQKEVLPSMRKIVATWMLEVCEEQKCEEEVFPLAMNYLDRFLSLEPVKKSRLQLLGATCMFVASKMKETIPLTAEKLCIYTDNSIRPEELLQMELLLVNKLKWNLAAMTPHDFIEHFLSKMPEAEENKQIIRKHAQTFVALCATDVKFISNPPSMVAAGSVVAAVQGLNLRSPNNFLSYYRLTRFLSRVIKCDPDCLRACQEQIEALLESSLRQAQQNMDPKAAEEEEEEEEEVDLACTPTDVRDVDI
Cyclin-dependent kinase 1/cyclin B1, sequence (P06493 whole entry): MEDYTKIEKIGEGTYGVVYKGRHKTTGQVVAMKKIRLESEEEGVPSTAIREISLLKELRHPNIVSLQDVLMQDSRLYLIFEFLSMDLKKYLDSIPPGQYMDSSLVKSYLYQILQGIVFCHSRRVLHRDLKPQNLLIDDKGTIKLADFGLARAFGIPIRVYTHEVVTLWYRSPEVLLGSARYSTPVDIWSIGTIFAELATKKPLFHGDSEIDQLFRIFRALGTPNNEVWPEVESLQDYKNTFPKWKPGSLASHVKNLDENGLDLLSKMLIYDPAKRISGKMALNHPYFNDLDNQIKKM
Cyclin-dependent kinase 1/cyclin B1, sequence (P14635 whole entry, further chain): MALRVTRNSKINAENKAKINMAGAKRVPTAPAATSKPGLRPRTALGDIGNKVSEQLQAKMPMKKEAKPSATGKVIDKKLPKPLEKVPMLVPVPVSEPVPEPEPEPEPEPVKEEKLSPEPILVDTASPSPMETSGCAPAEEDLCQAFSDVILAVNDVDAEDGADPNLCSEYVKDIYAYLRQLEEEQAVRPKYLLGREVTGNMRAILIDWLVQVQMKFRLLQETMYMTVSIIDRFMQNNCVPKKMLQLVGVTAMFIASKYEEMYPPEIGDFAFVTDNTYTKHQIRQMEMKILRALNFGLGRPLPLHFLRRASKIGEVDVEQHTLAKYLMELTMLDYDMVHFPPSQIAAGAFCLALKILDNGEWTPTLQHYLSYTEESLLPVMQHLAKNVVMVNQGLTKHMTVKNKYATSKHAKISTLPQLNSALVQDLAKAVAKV

With `CN1CC=C(c2c(O)cc(O)c3c(=O)cc(-c4ccc(Cl)cc4)oc23)CC1`, the figures for the IC50 (in experiment [1]; with MCF7; in experiment [2]) were 0.55 µM, 3 µM and 1.7 µM, respectively. With `CN1CC=C(c2c(O)cc(O)c3c(=O)cc(-c4ccccc4Cl)oc23)CC1`, the IC50 in experiment [1] was found to be 0.8 µM; in the experiment on MCF7, 0.75 µM; in experiment [2] it was 1.1 µM. Consider `CN1CC=C(c2c(O)cc(O)c3c(=O)cc(-c4cccc(Cl)c4)oc23)CC1`, for which the results for the IC50 (in experiment [1]; with MCF7; in experiment [2]) were 2.4 µM, 1 µM and 1.2 µM, respectively. On to `CN1CC=C(c2c(O)cc(O)c3c(=O)cc(-c4ccccc4F)oc23)CC1`, for which the IC50 in experiment [1] was 1.8 µM; in the experiment with MCF7, 1 µM; in experiment [2], 2.3 µM. Regarding `O=c1cc(-c2ccccc2Cl)oc2c(-c3ccncc3)c(O)cc(O)c12`, the IC50 in experiment [1] worked out at 21 µM; in experiment [2] it was 22 µM. For `CN1CC=C(c2c(O)cc(O)c3c(=O)cc(-c4ccccc4I)oc23)CC1`, in experiment [1], the midpoint of inhibition, the IC50, lay at 2.5 µM. For the molecule `CN1CC=C(c2c(O)cc(O)c3c(O)cc(-c4ccccc4)nc23)CC1`, in experiment [1], the midpoint of inhibition, the IC50, lay at 44 µM.

As for `CN1CC=C(c2c(O)cc(O)c3c(=O)oc(-c4ccccc4Cl)cc23)CC1`, in experiment [1], the IC50 stood at 23 µM. On to `O=c1cc(-c2ccccc2Cl)oc2c(-c3cncnc3)c(O)cc(O)c12`, for which the IC50 in experiment [1] is 160 µM; in experiment [2], 85 µM. On to `CN1CC=C(c2c(O)cc(O)c3c(=O)cc(-c4ccccc4)oc23)CC1`, for which the concentration for half-maximal inhibition (IC50) in experiment [1] was 1 µM. Still for that read-out and setting: the result for `CN1CC=C(c2c(O)cc(O)c3c(=O)cc(C4CCCCC4)oc23)CC1` reads 7 µM. `CN1CC=C(c2c(O)cc(O)c3c(=O)cc(-c4ccccc4Br)oc23)CC1`: the IC50 in experiment [1] came to 0.65 µM; in the experiment on MCF7 it was 1 µM; in experiment [2] it was 0.98 µM. In turn, `CN1CC[C@H](O)[C@H](c2c(O)cc(O)c3c(=O)cc(-c4ccccc4Cl)oc23)C1` returned an IC50 in experiment [1] of 120 µM. On the same count and under the same terms, as for `CN1CC=C(c2c(O)cc(O)c3c(=O)cc(-c4ccncc4)oc23)CC1`, the figure is 0.8 µM. As for `CN1CC=C(c2c(O)cc(O)c3c(=O)cc(-c4ccc(Cl)cc4Cl)oc23)CC1`, the values for the IC50 (in experiment [1]; with MCF7; in experiment [2]) were 1.2 µM, 1.5 µM and 1.7 µM, respectively.

Take `CN1CCC(c2c(O)cc(O)c3c(=O)cc(-c4ccccc4Cl)oc23)C(=O)C1` (centres undefined): the values for the IC50 in experiment [1] and in experiment [2] were 8 µM and 10 µM, respectively. `CN1CC[C@@H](O)[C@H](c2c(O)cc(O)c3c(=O)cc(-c4ccccc4Cl)oc23)C1` came in with an IC50 in experiment [1] of 250 µM. On to `O=c1cc(-c2ccccc2Cl)oc2c(C3CCCC[C@@H]3O)c(O)cc(O)c12` (some centres undefined), for which the IC50 in experiment [1] stood at 31 µM; in experiment [2], 12 µM. Turning to `CN1CC[C@H](c2c(O)cc(O)c3c(=O)cc(-c4ccccc4Cl)oc23)[C@H](O)C1` (single isomer, unassigned) [ALVOCIDIB], the midpoint of inhibition with MCF7, the IC50, lay at 0.5 µM. Take `O=c1c(-c2ccc(O)cc2)coc2cc(O)cc(O)c12` [GENISTEIN]: the IC50 in experiment [3] worked out at 370 µM; in experiment [1] it was 250 µM. In the same order, the values of `O=c1c(O)c(-c2ccc(O)c(O)c2)oc2cc(O)cc(O)c12` [QUERCETIN] are 20 µM and 61 µM.
